Test results as given in patent US7638482B2, “Protein kinase C zeta as a drug target for arthritis and other inflammatory diseases” (Wyeth, priority 2003, dated 2009).
Read-outs that look alike come from different tables or passages of the source. Where a SMILES comes first, the peptide text is derived from it. The star is where a group is joined. Myristoyl = CCCCCCCCCCCCCC(=O)*

How the values were obtained:
[1] = test system: primary bovine chondrocytes; assay: Trypan blue staining of chondrocytes and lactate assays on culture media (cytotoxicity); format: cell-based
Experimental: Trypan blue staining of the chondrocytes and lactate assays on the culture media were performed to rule out cytotoxicity as a possible explanation for the results. […] In addition, control peptides were synthesized and tested in the same assay system to address the possibility that nonspecific effects may be causing the observed results.

[2] = test system: primary bovine chondrocytes; assay: Proteoglycan degradation in primary bovine chondrocyte pellet culture (release into media / retention in cell pellet, DMMB); format: cell-based
Experimental: Full-thickness bovine articular cartilage slices were dissected under aseptic conditions, rinsed four times in PBS, and subjected to pronase and collagenase digestion (1 mg/ml pronase (Calbiochem, San Diego, Calif.) for 30 minutes and 1 mg/ml Collagenase P (Roche Diagnostics Corporation, Indianapolis, Ind.) overnight at 37° C. in DME without serum) to isolate chondrocytes embedded in the cartilage extracellular matrix. The digest was filtered through a 70 micron Falcon™ cell strainer (BD Biosciences, San Jose, Calif.) and washed twice in DME containing 10% FBS. Typically 2-4×10^8 cells were obtained from a calf metacarpophalangeal joint surface. Cells were plated in monolayer in six-well plates at density of 2×10^6 cells/well. For pellet culture, cells were resuspended in growth media [HL-1 media (Cambrex Corporation, East Rutherford, N.J.), penicillin+streptomycin, glutamine, 50 μg/ml ascorbate, and 10% FBS] at 1×10^6 cells/ml, and 1 ml aliquots of cells were transferred to 15 ml sterile Falcon centrifuge tubes. The cells were centrifuged at 200×g for 5 min at 4° C. and the resulting cell pellets were cultured as described previously (Xu et al. (1996) Endocrinology 137:3557-65). Cell media were collected and stored for collagen and proteoglycan assays, and cells were refed with fresh media (3 ml/well, 1 ml/tube) every 3-4 days. Pellet cultures were maintained for 3 weeks, at which time the pellets were harvested and either digested with 0.5 ml of 300 μg/ml papain at 65° C. for 3-6 hrs for dimethylmethylene blue (DMMB) dye assays or prepared for histology.
Cells were incubated with the inhibitor for 3 hrs prior to the addition of either TNF or IL-1. […] SN50M, which served as a negative control, is the same peptide with amino acid changes to abolish NF-κB-blocking activity. SN50 and SN50M are available from, e.g., Biomol Research Laboratories, Inc. (Plymouth Meeting, Pa.).
To determine whether ζPKC inhibitors can inhibit TNF-mediated proteoglycan degradation, primary bovine chondrocytes were cultured with various concentrations of TNF for 5 days with or without (1) the myristoylated ζPKC peptide pseudosubstrate [herein termed “2089”; synthesized in-house; equivalent to SEQ ID NO:6; available from, e.g., BioSource International, Inc., USA (Camarillo, Calif.)], or (2) the small molecule inhibitor Ro-31-8220 (Sigma-RBI, Natick, Mass.). The inhibitors were added 3 hrs prior to addition of TNF.
To determine whether myristoylated ζPKC peptide pseudosubstrate 2089 can inhibit cytokine-mediated proteoglycan degradation in a dose-dependent manner, primary bovine chondrocytes were cultured with either 10 ng/ml TNF or 1 ng/ml IL-1 for 4 days after addition of various concentrations of 2089. […]

[3] = biological target: T1, ζPKC (Homo sapiens, UniProt Q05513); conditions: literature (Toullec et al. 1991); cited from earlier work
T1 sequence (Q05513 1-592): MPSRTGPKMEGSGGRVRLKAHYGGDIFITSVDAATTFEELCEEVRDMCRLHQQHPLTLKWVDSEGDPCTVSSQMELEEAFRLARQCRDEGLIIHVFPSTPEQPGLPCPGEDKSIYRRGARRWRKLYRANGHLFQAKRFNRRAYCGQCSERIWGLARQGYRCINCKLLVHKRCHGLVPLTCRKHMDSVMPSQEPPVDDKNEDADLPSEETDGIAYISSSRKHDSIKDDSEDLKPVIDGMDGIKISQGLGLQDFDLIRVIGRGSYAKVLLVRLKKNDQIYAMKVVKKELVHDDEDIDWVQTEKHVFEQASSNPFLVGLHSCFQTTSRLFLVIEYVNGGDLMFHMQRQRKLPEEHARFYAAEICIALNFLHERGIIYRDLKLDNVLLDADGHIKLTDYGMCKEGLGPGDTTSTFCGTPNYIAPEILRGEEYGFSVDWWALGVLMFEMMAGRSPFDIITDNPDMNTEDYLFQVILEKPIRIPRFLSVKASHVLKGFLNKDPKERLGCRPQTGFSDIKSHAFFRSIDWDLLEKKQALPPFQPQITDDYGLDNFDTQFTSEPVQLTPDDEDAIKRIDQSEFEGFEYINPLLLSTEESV

[4] = test system: NF-κB; assay: NF-κB luciferase reporter assay in immortalized human chondrocyte cell line C28/I2; format: cell-based; conditions: BIS 20 μM; TNFα 1 or 10 ng/ml; C28/I2 cells; inhibitor added 2 hrs before TNF; FIG. 8
Experimental: Activation of NF-κB was measured in an immortalized human chondrocyte cell line (C28/I2; see, e.g., Finger et al. (2003) Arthritis Rheum. 48:3395-403; Goldring (1994) J. Clin. Invest. 94:2307-16) into which a luciferase reporter gene under the control of an NF-κB response element was introduced. The cells were cultured in DMEM/Ham's F12 supplemented with 10% FBS; the cells were split into 96 wells (1×10^5 cells/well) and infected with adenovirus expressing NF-κB luciferase construct (100 MOI) 24 hrs prior to assay. The chondrocytes were incubated with inhibitors in serum-free media 2 hrs prior to the addition of TNF. […] BIS (20 μM), a pan-PKC inhibitor, was added to some cultures, and CC (8 μM), a competitive inhibitor of the phorbol ester binding site in some forms of PKC (but not the a typical PKCs, e.g., ζPKC), was added to other cultures.

In the case of `Cn1cc(C2=C(c3cn(CCCSC(=N)N)c4ccccc34)C(=O)NC2=O)c2ccccc21` [Ro-31-8220], the “cytotoxicity (trypan blue staining, lactate assays)” value ([1]; at the doses used in the proteoglycan degradation experiments) is reported as “do not cause appreciable cytotoxicity”, the TNF-mediated proteoglycan degradation ([2]; 5 μM Ro-31-8220, 5 days, FIG. 3) is reported as “relatively ineffective” and the TNF-mediated proteoglycan degradation ([2]; 10 μM Ro-31-8220, TNF 10 and 100 ng/ml, 5 days, FIG. 3) is reported as “significantly inhibited”. The “proteoglycan degradation in the absence of TNF” value ([2]; no TNF, 5 days, FIG. 3) was “inhibited proteoglycan degradation”.
In the case of `CCCCCCCCCCCCCC(=O)N[C@@H](CO)C(=O)N[C@H](C(=O)N[C@@H](Cc1ccc(O)cc1)C(=O)N[C@@H](CCCNC(=N)N)C(=O)N[C@@H](CCCNC(=N)N)C(=O)NCC(=O)N[C@@H](C)C(=O)N[C@@H](CCCNC(=N)N)C(=O)N[C@@H](CCCNC(=N)N)C(=O)N[C@@H](Cc1c[nH]c2ccccc12)C(=O)N[C@@H](CCCNC(=N)N)C(=O)N[C@@H](CCCCN)C(=O)N[C@@H](CC(C)C)C(=O)O)[C@@H](C)CC` [compound 2089] (Myristoyl-SIYRRGARRWRKL-OH), the “cytotoxicity (trypan blue staining, lactate assays)” value [1] is reported as “do not cause appreciable cytotoxicity”.
For bisindolylmaleimide, the “inhibition of PKC isoforms including ζPKC” value [3] is listed as “block the activity of all isoforms of PKC”, the “TNFα-mediated activation of NF-κB (relative luciferase activity)” value [4] is listed as “blocked” and the “TNFα-mediated release of proteoglycan into the media” value ([2]; BIS at 20-40 μM, TNFα 100 ng/ml, FIG. 7) is listed as “blocked”.
